Reference: patent US20110196000A1, “Use of succinate dehydrogenase (SDH) inhibitors in the treatment of plant species from the family of the true grasses” (Bayer CropScience AG, priority 2010, published 2011)

What was measured:
Type in all cases: in vivo
[1] = test system: infection-free wheat plants of the cultivar Passat; experiment: Glasshouse trial: time of heading (ear emergence); design: time of heading of wheat (ears emerged): unit not given here
Experimental: (§1) In a glasshouse trial under controlled conditions, the effect of bixafen was investigated on the physiology, morphology and abiotic stress tolerance of infection-free wheat plants of the cultivar […] plants were grown in 10-litre containers over a period of 4 months. The substrate used was standard earth type ED 73 (Fröndenberg, Germany)+C-Horizont+Sand (4:2:1). The supply of nutrient to the plants took place by feeding with a 0.2% strength Flory 2 liquid fertilizer solution (from Euflor, Munich) once every two weeks. The plants were supplied with water as required. In each component of the trial, 10 repetitions were carried out.

[2] = test system: infection-free wheat plants of the cultivar Passat; experiment: Glasshouse trial: gas exchange activity of wheat ears; conditions: development stage BBCH 75
Experimental: as §1

[3] = test system: Wheat plants; experiment: Effect of single and double bixafen treatment on leaf area; conditions: for Area [rel.] of the flag leaf / Area [rel.] of the leaf F-1: untreated = 100
Experimental: Trial procedure: Wheat plants were treated at different development stages with bixafen once or twice (125 g/ha each time), and a measurement was made of the respective size of the flag leaf and of the leaf F-1 at the time BBCH 75. For the destructive measurement of the leaf area, the leaves were removed from the plant. The non-destructive measurement was carried out on the intact leaf of the plant.

[4] = treated at BBCH 33 (125 g/ha), measured at BBCH 75, destructive
[5] = treated at BBCH 33 (125 g/ha), measured at BBCH 75, non-destructive
[6] = treated at BBCH 33 + 39 (125 g/ha each time), measured at BBCH 75, destructive
[7] = treated at BBCH 33 + 39 (125 g/ha each time), measured at BBCH 75, non-destructive
[8] = treated at BBCH 33 + 59 (125 g/ha each time), measured at BBCH 75, destructive
[9] = treated at BBCH 33 + 59 (125 g/ha each time), measured at BBCH 75, non-destructive
[10] = treated at BBCH 39 (125 g/ha), measured at BBCH 75, destructive
[11] = treated at BBCH 39 (125 g/ha), measured at BBCH 75, non-destructive
[12] = treated at BBCH 39 + 59 (125 g/ha each time), measured at BBCH 75, destructive
[13] = treated at BBCH 39 + 59 (125 g/ha each time), measured at BBCH 75, non-destructive
[14] = treated at BBCH 59 (125 g/ha), measured at BBCH 75, destructive
[15] = treated at BBCH 59 (125 g/ha), measured at BBCH 75, non-destructive

SMILES: OC(Cc1ccccc1Cl)(Cn1nc[nH]c1=S)C1(Cl)CC1 (centres unmarked) [Prothioconazole]
- time of heading of wheat (ears emerged) ([1]; 45 days after sowing): 6.9
- time of heading of wheat (ears emerged) ([1]; 50 days after sowing): 29.0
- time of heading of wheat (ears emerged) ([1]; 55 days after sowing): 42.6
- time of heading of wheat (ears emerged) ([1]; 60 days after sowing): 48.2
- time of heading of wheat (ears emerged) ([1]; 65 days after sowing): 64.1
- time of heading of wheat (ears emerged) ([1]; 70 days after sowing): 77.9
- time of heading of wheat (ears emerged) ([1]; 75 days after sowing): 87.1
- time of heading of wheat (ears emerged) ([1]; 80 days after sowing): 94.9
- time of heading of wheat (ears emerged) ([1]; 85 days after sowing): 100
- Photosynthesis (gas exchange activity of wheat ears) [2]: −1.86 a CO2 per ear
- Respiration (gas exchange activity of wheat ears) [2]: 2.12 ab CO2 per ear

SMILES: Cn1cc(C(=O)Nc2ccc(F)cc2-c2ccc(Cl)c(Cl)c2)c(C(F)F)n1 [Bixafen, N-(3′,4′-dichloro-5-fluoro-1,1′-biphenyl-2-yl)-3-(difluoromethyl)-1-methyl-1H-pyrazole-4-carboxamide]
- time of heading of wheat (ears emerged) ([1]; 45 days after sowing): 1.8
- time of heading of wheat (ears emerged) ([1]; 50 days after sowing): 15.5
- time of heading of wheat (ears emerged) ([1]; 55 days after sowing): 42.2
- time of heading of wheat (ears emerged) ([1]; 60 days after sowing): 57.0
- time of heading of wheat (ears emerged) ([1]; 65 days after sowing): 78.0
- time of heading of wheat (ears emerged) ([1]; 70 days after sowing): 88.7
- time of heading of wheat (ears emerged) ([1]; 75 days after sowing): 93.5
- time of heading of wheat (ears emerged) ([1]; 80 days after sowing): 96.7
- time of heading of wheat (ears emerged) ([1]; 85 days after sowing): 98.5
- uniformity of heading (ear emergence) ([1]; glasshouse trial, statement in words): the heading is more uniform
- Area of the flag leaf [3, 4]: 32.13 cm^2
- Area of the leaf F-1 [3, 4]: 32.69 cm^2
- Length of the flag leaf [3, 4]: 28.25 cm
- Length of the leaf F-1 [3, 4]: 30.58 cm
- Width of the flag leaf [3, 4]: 1.47 cm
- Width of the leaf F-1 [3, 4]: 1.35 cm
- Area [rel.] of the flag leaf [3, 4]: 115 rel.
- Area [rel.] of the leaf F-1 [3, 4]: 119 rel.
- Area of the flag leaf [3, 5]: 35.23 cm^2
- Length of the flag leaf [3, 5]: 25.11 cm
- Width of the flag leaf [3, 5]: 1.66 cm
- Area [rel.] of the flag leaf [3, 5]: 109 rel.
- Area of the flag leaf [3, 6]: 29.38 cm^2
- Area of the leaf F-1 [3, 6]: 28.42 cm^2
- Length of the flag leaf [3, 6]: 24.49 cm
- Length of the leaf F-1 [3, 6]: 27.68 cm
- Width of the flag leaf [3, 6]: 1.40 cm
- Width of the leaf F-1 [3, 6]: 1.27 cm
- Area [rel.] of the flag leaf [3, 6]: 105 rel.
- Area [rel.] of the leaf F-1 [3, 6]: 103 rel.
- Area of the flag leaf [3, 7]: 35.37 cm^2
- Length of the flag leaf [3, 7]: 24.49 cm
- Width of the flag leaf [3, 7]: 1.76 cm
- Area [rel.] of the flag leaf [3, 7]: 109 rel.
- Area of the flag leaf [3, 8]: 31.28 cm^2
- Area of the leaf F-1 [3, 8]: 30.07 cm^2
- Length of the flag leaf [3, 8]: 27.10 cm
- Length of the leaf F-1 [3, 8]: 29.77 cm
- Width of the flag leaf [3, 8]: 1.51 cm
- Width of the leaf F-1 [3, 8]: 1.30 cm
- Area [rel.] of the flag leaf [3, 8]: 112 rel.
- Area [rel.] of the leaf F-1 [3, 8]: 109 rel.
- Area of the flag leaf [3, 9]: 37.41 cm^2
- Length of the flag leaf [3, 9]: 25.83 cm
- Width of the flag leaf [3, 9]: 1.73 cm
- Area [rel.] of the flag leaf [3, 9]: 115 rel.
- Area of the flag leaf [3, 10]: 29.04 cm^2
- Area of the leaf F-1 [3, 10]: 28.37 cm^2
- Length of the flag leaf [3, 10]: 25.81 cm
- Length of the leaf F-1 [3, 10]: 28.27 cm
- Width of the flag leaf [3, 10]: 1.40 cm
- Width of the leaf F-1 [3, 10]: 1.19 cm
- Area [rel.] of the flag leaf [3, 10]: 104 rel.
- Area [rel.] of the leaf F-1 [3, 10]: 103 rel.
- Area of the flag leaf [3, 11]: 34.86 cm^2
- Length of the flag leaf [3, 11]: 24.21 cm
- Width of the flag leaf [3, 11]: 1.72 cm
- Area [rel.] of the flag leaf [3, 11]: 108 rel.
- Area of the flag leaf [3, 12]: 32.44 cm^2
- Area of the leaf F-1 [3, 12]: 30.28 cm^2
- Length of the flag leaf [3, 12]: 26.57 cm
- Length of the leaf F-1 [3, 12]: 29.38 cm
- Width of the flag leaf [3, 12]: 1.52 cm
- Width of the leaf F-1 [3, 12]: 1.20 cm
- Area [rel.] of the flag leaf [3, 12]: 116 rel.
- Area [rel.] of the leaf F-1 [3, 12]: 110 rel.
- Area of the flag leaf [3, 13]: 39.44 cm^2
- Length of the flag leaf [3, 13]: 26.83 cm
- Width of the flag leaf [3, 13]: 1.77 cm
- Area [rel.] of the flag leaf [3, 13]: 122 rel.
- Area of the flag leaf [3, 14]: 32.37 cm^2
- Area of the leaf F-1 [3, 14]: 30.55 cm^2
- Length of the flag leaf [3, 14]: 26.58 cm
- Length of the leaf F-1 [3, 14]: 31.10 cm
- Width of the flag leaf [3, 14]: 1.47 cm
- Width of the leaf F-1 [3, 14]: 1.26 cm
- Area [rel.] of the flag leaf [3, 14]: 116 rel.
- Area [rel.] of the leaf F-1 [3, 14]: 111 rel.
- Area of the flag leaf [3, 15]: 37.91 cm^2
- Length of the flag leaf [3, 15]: 23.78 cm
- Width of the flag leaf [3, 15]: 2.02 cm
- Area [rel.] of the flag leaf [3, 15]: 117 rel.
- Photosynthesis (gas exchange activity of wheat ears) [2]: -5.94 CO2 per ear
- Respiration (gas exchange activity of wheat ears) [2]: 6.12 CO2 per ear
